Consider three compounds from patent EP2210885A1, “Substituted heteroarylpiperidine derivatives as melanocortin-4 receptor modulators” (Santhera Pharmaceuticals (Schweiz) AG, priority 2009, dated 2010).

For experiment [1], the target named is T1, hMC-4R (Homo sapiens, UniProt P32245).
T1 construct: expressed in transfected cells; host or cells: HEK293 cell membrane preparations
As to the kind of experiment: hMC-4R membrane binding assay (fluorescence polarization, competition with fluorescence labeled NDP-alpha-MSH). The following applies: HEK293 cell membrane preparations expressing human melanocortin receptors; values grouped in classes. How it is done: A membrane binding assay is used to identify competitive inhibitors of fluorescence labeled NDP-alpha-MSH binding to HEK293 cell membrane preparations expressing human melanocortin receptors.
The test compound or unlabeled NDP-alpha-MSH is dispensed at varying concentrations to a 384 well microtiter plate. Fluorescence labeled NDP-alpha-MSH is dispensed at a single concentration, followed by addition of membrane preparations. The plate is incubated for 5 h at room temperature.
The degree of fluorescence polarization is determined with a fluorescence polarization microplate reader.

The target of experiment [2] is T1, hMC-4R. As to the kind of experiment: hMC-4R functional assay (membrane based cAMP fluorescence polarization, agonistic activity). As to conditions: cAMP produced compared to stimulation with NDP-alpha-MSH. Type of experiment: biochemical. How it is done:
Agonistic activity of human melanocortin receptors is determined in a homogeneous membrane based assay.
The test compound or unlabeled NDP-alpha-MSH is dispensed at varying concentrations to a 384 well microtiter plate. Membrane preparations from HEK293 cells expressing the human melanocortin receptors are added. After a short preincubation period, an appropriate amount of ATP, GTP and the cAMP antibody is added and the plate is further incubated before the fluorescence labeled cAMP conjugate is dispensed. The plate is incubated for 2 h at 4°C before it is read on a fluorescence polarization microplate reader. The amount of cAMP produced as a response to a test compound is compared to the production of cAMP resulting from stimulation with NDP-alpha-MSH.
(Polarisation of emitted light reports the rotation of a fluorescent probe.)

Some results are limits rather than exact numbers.

T1 sequence (P32245 whole entry): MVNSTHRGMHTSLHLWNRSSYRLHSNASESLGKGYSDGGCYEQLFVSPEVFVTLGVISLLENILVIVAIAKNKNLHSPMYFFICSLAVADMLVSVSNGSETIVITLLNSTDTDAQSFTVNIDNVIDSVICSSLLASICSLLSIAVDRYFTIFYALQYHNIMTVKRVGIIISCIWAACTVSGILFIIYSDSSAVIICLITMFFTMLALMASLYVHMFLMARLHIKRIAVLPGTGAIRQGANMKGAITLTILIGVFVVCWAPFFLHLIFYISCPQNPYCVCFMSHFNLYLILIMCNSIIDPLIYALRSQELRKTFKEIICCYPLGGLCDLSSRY

By IC50 is commonly meant the concentration needed to halve the response being measured. A low value points to greater potency in that assay. Turning to `CCC(COc1cccnc1C1CCN(C(=O)C(Cc2ccc(Cl)cc2Cl)NC(=O)OC(C)C)CC1)N(C)C` (stereo not drawn) [Example 2], at hMC-4R [1], the IC50 was no more than 0.1 µM. Besides, the “% activation functional assay” value at hMC-4R [2] is 4%.
On the same counts, the results for `CC[C@H](COc1cccnc1C1CCN(C(=O)[C@@H](Cc2ccc(Cl)cc2Cl)NC(=O)OC2CCCC2)CC1)N(C)C` [Example 3] are 0.1 to 1 µM and 0%.
For the compound `CCOC(=O)N[C@H](Cc1ccc(Cl)cc1Cl)C(=O)N1CCC(c2ncccc2OC[C@@H](CC)N(C)C)CC1` [Example 1], at hMC-4R [1], the IC50 is no more than 0.1 µM. Moreover, the “% activation functional assay” value at hMC-4R [2] is -6%.
